Experiment [1] deals with I-Ed (Mus musculus, UniProt P01904+P01915). The note with it: pH 5 as compared with pH 7; cited from earlier work.
The target in experiment [2] is I-Ak (Mus musculus, UniProt P01910+P06343). Kind of experiment: Peptide binding immunoassay. Particulars: 250 μM unlabeled HEL(46-61) vs biotin-HEL(46-61), 68 h.

GMNAWVAWRNR.CKGTDVY [HEL(104-120)]: in experiment [1], the apparent affinity result is “increased”, the “apparent concentration (number) of peptide-binding sites” value is on record as “increased”, the effect on dissociation entry is on record as “no measurable effect” and the rate of association result is reported as “increased”.
On to NTDGSTDYGILQINSR [HEL(46-61)], for which the “nonspecific signal remaining with unlabeled competitor” value in experiment [2] is on record as < 10 % of maximal absorbance.

Source of the values: article PMC2119350 (The Journal of Experimental Medicine, 1992).
